Reference: the NIST ThermoML archive (doi:10.1021/acs.jced.8b00348)
Numbers after ± are expanded uncertainties.

Columns and labels:
[1] = refractive index (Na D-line) (dimensionless); xn = mol fraction of the nth substance listed; conditions: 293.15 K, 93.13 kPa, Liquid, Standard Abbe refractometry
[2] = refractive index (Na D-line) (dimensionless); conditions: 293.15 K; 93.13 kPa; Liquid; Standard Abbe refractometry
[3] = Liquid, Ebulliometric method (Recirculating still)

Cc1ccc(C)cc1 [1,4-dimethylbenzene] + COc1ccccc1
refractive index ([1]; x1 = 1): 1.4956 ± 0.0004

CCc1ccccc1 [ethylbenzene] + COc1ccccc1
refractive index ([1]; x1 = 1): 1.4955 ± 0.0004

Cc1ccccc1C [1,2-dimethylbenzene]
refractive index [2]: 1.5048 ± 0.0004
vapor or sublimation pressure ([3]; 414.41 K): 93.13 ± 0.96 kPa

Cc1ccccc1C [1,2-dimethylbenzene] + COc1ccccc1
refractive index ([1]; x1 = 1): 1.5048 ± 0.0004

COc1ccccc1 [anisole] + Cc1ccc(C)cc1
refractive index ([1]; x2 = 0): 1.517 ± 0.0004
refractive index ([1]; x2 = 0.0499): 1.5157 ± 0.0004
refractive index ([1]; x2 = 0.1387): 1.5138 ± 0.0004
refractive index ([1]; x2 = 0.1684): 1.5131 ± 0.0004
refractive index ([1]; x2 = 0.2124): 1.5122 ± 0.0004
refractive index ([1]; x2 = 0.2656): 1.511 ± 0.0004
refractive index ([1]; x2 = 0.3055): 1.5101 ± 0.0004
refractive index ([1]; x2 = 0.4128): 1.5078 ± 0.0004
refractive index ([1]; x2 = 0.4494): 1.507 ± 0.0004
refractive index ([1]; x2 = 0.4497): 1.507 ± 0.0004
refractive index ([1]; x2 = 0.5122): 1.5057 ± 0.0004
refractive index ([1]; x2 = 0.5626): 1.5046 ± 0.0004
refractive index ([1]; x2 = 0.6095): 1.5036 ± 0.0004
refractive index ([1]; x2 = 0.8055): 1.4995 ± 0.0004
refractive index ([1]; x2 = 0.8904): 1.4978 ± 0.0004
refractive index ([1]; x2 = 0.9613): 1.4964 ± 0.0004

Cc1cccc(C)c1 [1,3-dimethylbenzene] + COc1ccccc1
refractive index ([1]; x1 = 1): 1.497 ± 0.0004

COc1ccccc1 [anisole] + CCc1ccccc1
refractive index ([1]; x2 = 0): 1.517 ± 0.0004
refractive index ([1]; x2 = 0.0762): 1.5152 ± 0.0004
refractive index ([1]; x2 = 0.1494): 1.5136 ± 0.0004
refractive index ([1]; x2 = 0.1767): 1.513 ± 0.0004
refractive index ([1]; x2 = 0.2118): 1.5122 ± 0.0004
refractive index ([1]; x2 = 0.2442): 1.5115 ± 0.0004
refractive index ([1]; x2 = 0.2691): 1.511 ± 0.0004
refractive index ([1]; x2 = 0.3432): 1.5093 ± 0.0004
refractive index ([1]; x2 = 0.4041): 1.508 ± 0.0004
refractive index ([1]; x2 = 0.412): 1.5077 ± 0.0004
refractive index ([1]; x2 = 0.4651): 1.5066 ± 0.0004
refractive index ([1]; x2 = 0.5183): 1.5055 ± 0.0004
refractive index ([1]; x2 = 0.6208): 1.5033 ± 0.0004
refractive index ([1]; x2 = 0.6885): 1.5019 ± 0.0004
refractive index ([1]; x2 = 0.7927): 1.4998 ± 0.0004
refractive index ([1]; x2 = 0.9056): 1.4975 ± 0.0004
refractive index ([1]; x2 = 0.9514): 1.4965 ± 0.0004

COc1ccccc1 [anisole]
refractive index [2]: 1.517 ± 0.0004
vapor or sublimation pressure ([3]; 423.38 K): 93.13 ± 0.96 kPa

CCc1ccccc1 [ethylbenzene]
refractive index [2]: 1.4955 ± 0.0004
vapor or sublimation pressure ([3]; 406.23 K): 93.13 ± 0.96 kPa

COc1ccccc1 [anisole] + Cc1cccc(C)c1
refractive index ([1]; x2 = 0): 1.517 ± 0.0004
refractive index ([1]; x2 = 0.0756): 1.5154 ± 0.0004
refractive index ([1]; x2 = 0.1836): 1.5131 ± 0.0004
refractive index ([1]; x2 = 0.2143): 1.5125 ± 0.0004
refractive index ([1]; x2 = 0.2716): 1.5113 ± 0.0004
refractive index ([1]; x2 = 0.3152): 1.5104 ± 0.0004
refractive index ([1]; x2 = 0.4196): 1.5082 ± 0.0004
refractive index ([1]; x2 = 0.4711): 1.5072 ± 0.0004
refractive index ([1]; x2 = 0.5086): 1.5064 ± 0.0004
refractive index ([1]; x2 = 0.6083): 1.5045 ± 0.0004
refractive index ([1]; x2 = 0.6746): 1.5031 ± 0.0004
refractive index ([1]; x2 = 0.7383): 1.5019 ± 0.0004
refractive index ([1]; x2 = 0.8189): 1.5002 ± 0.0004
refractive index ([1]; x2 = 0.8552): 1.4997 ± 0.0004
refractive index ([1]; x2 = 0.9339): 1.4982 ± 0.0004

Cc1cccc(C)c1 [1,3-dimethylbenzene]
refractive index [2]: 1.497 ± 0.0004
vapor or sublimation pressure ([3]; 409.13 K): 93.13 ± 0.96 kPa

Cc1ccc(C)cc1 [1,4-dimethylbenzene]
refractive index [2]: 1.4956 ± 0.0004
vapor or sublimation pressure ([3]; 408.37 K): 93.13 ± 0.96 kPa

COc1ccccc1 [anisole] + Cc1ccccc1C
refractive index ([1]; x2 = 0): 1.517 ± 0.0004
refractive index ([1]; x2 = 0.0825): 1.5159 ± 0.0004
refractive index ([1]; x2 = 0.1066): 1.5156 ± 0.0004
refractive index ([1]; x2 = 0.1439): 1.5151 ± 0.0004
refractive index ([1]; x2 = 0.1945): 1.5144 ± 0.0004
refractive index ([1]; x2 = 0.2976): 1.5131 ± 0.0004
refractive index ([1]; x2 = 0.3812): 1.512 ± 0.0004
refractive index ([1]; x2 = 0.4796): 1.5109 ± 0.0004
refractive index ([1]; x2 = 0.617): 1.5092 ± 0.0004
refractive index ([1]; x2 = 0.6785): 1.5084 ± 0.0004
refractive index ([1]; x2 = 0.7801): 1.5072 ± 0.0004
refractive index ([1]; x2 = 0.9159): 1.5057 ± 0.0004
refractive index ([1]; x2 = 0.9329): 1.5056 ± 0.0004
